Earlier results, collected in patent publication US20040197905A1, “Methods and devices for monitoring cellular metabolism in microfluidic cell-retaining chambers” (Thermogenic Imagining, priority 2003, published 2004).
Where two headings read alike, the source gives them in different places.

In the case of carboxy SNARF-1, the pKa (at 37° C.) is given as 7.3-7.4 and the pKa (at room temperature) is given as “about 7.5”.
